According to patent publication US4812312A, “Liposome-incorporated nystatin” (Board of Regents of the University of Texas System, priority 1987, dated 1989):
Where two headings read alike, the source gives them in different places.

Tests used:
[1] = test system: HTLV-III/LAV; settings: cell line H9; cited from earlier work
[2] = test system: Candida albicans; assay: Multiple-dose therapy with Nys or L-Nys of disseminated C. albicans infection in mice; type: in vivo, Hale-Stoner mice
Experimental: (§1) Hale-Stoner mice, six to eight weeks old (body weight, 20-25 g) were purchased from The University of Texas Science Park (Bastrop, TX). The mice (eight per group) were injected with 0.2 ml of C. albicans cell suspension containing 7×10^5 colony-forming units (cfu) via the tail vein. This concentration of cells was consistent in producing a disseminated infection after 48 hr, affecting liver, spleen, lungs, and kidneys primarily. Infected mice were treated with increasing doses of free-Nys, ranging from 1 mg to 4 mg/kg body weight (FIG. 5).
Two days after the injection of C. albicans (iv), (as described in Examples 9 and 10), the mice were treated with different doses of free-Nys, L-Nys, empty liposomes or 5% DMSO control for five consecutive days. The multiple-dose groups were also compared with appropriate cumulative single doses (see Example 10). The animals were then observed for survival or any toxicity pertaining to the treatment with five daily doses.
These experiments were terminated at 60 days, and blood and tissue samples were collected from the surviving animals after sacrifice.
Survival curves were calculated by the method of Kaplan and Meier (J. Amer. Stat. Assoc., Vol. 53, pp 457-462 […]) and tests for differences in survival distributions were based on a generalized Wilcoxon test (Gehan., Biometrika, Vol. 52, pp 203-223 (1965)). […]

[3] = orally and topically; cited from earlier work
[4] = Solubility of nystatin / polyenes; type: physicochemical
[5] = test system: Alternaria; assay: In vitro antifungal spectrum, MIC (Table 6); type: cell-based
Experimental: (§2) Organism, culture, and assay of antifungal activity in vitro. All strains of yeast were grown overnight at 37° C. on Sabouraud dextrose agar (SDA) plates. All molds were grown at 30° C. on SDA for 3 to 10 days prior to collection of spores. The inoculum was then processed for susceptibility testing as described earlier (Hopfer et al., Antimicrob. Agents Chemotherap., Vol. 25, pp 387-389 (1984)). A twofold serial dilution method (Shadomy et al., In E. H. Lennette, et al., (eds.) Manual of Clinical Microbiology, 3rd ed. American Society for Microbiology, Washington, D.C. , pp. 647-653 (1980)) adapted to microtiter plates was used to determine the minimal inhibitory concentration (MIC) of the drugs. The MIC of L-Nys were compared with that of free-Nys. Empty liposomes and 5% dimethylsulfoxide (DMSO) were used as controls.
(§3) The L-Nys was prepared and tested generally as described above in this and earlier examples, except for the various new fungal varieties. […] (Hopfer et al., […], Vol. 25, No. 3, pp. 387-389 (1984)).

[6] = test system: Curvularia; assay: In vitro antifungal spectrum, MIC (Table 6); type: cell-based
Experimental: as §2, §3

[7] = test system: Aspergillus flavus; assay: In vitro antifungal spectrum, MIC (Table 6); type: cell-based
Experimental: as §2, §3

[8] = test system: Candida albicans; assay: In vitro antifungal spectrum, MIC (Table 6); type: cell-based
Experimental: as §2, §3

[9] = test system: Fusarium; assay: In vitro antifungal spectrum, MIC (Table 6); type: cell-based
Experimental: as §2, §3

[10] = test system: Torulopsis globrata; assay: In vitro antifungal spectrum, MIC (Table 6); type: cell-based
Experimental: as §2, §3

[11] = test system: Aspergillus niger; assay: In vitro antifungal spectrum, MIC (Table 6); type: cell-based
Experimental: as §2, §3

[12] = test system: Aspergillus fumigatus; assay: In vitro antifungal spectrum, MIC (Table 6); type: cell-based
Experimental: as §2, §3

[13] = test system: Candida paratropicalis; assay: In vitro antifungal spectrum, MIC (Table 6); type: cell-based
Experimental: as §2, §3

[14] = test system: Mucor; assay: In vitro antifungal spectrum, MIC (Table 6); type: cell-based
Experimental: as §2, §3

[15] = test system: Candida tropicalis; assay: In vitro antifungal spectrum, MIC (Table 6); type: cell-based
Experimental: as §2, §3

[16] = test system: Cryptococcus neoformans; assay: In vitro antifungal spectrum, MIC (Table 6); type: cell-based
Experimental: as §2, §3

[17] = test system: Aspergillus not fumigatus; assay: In vitro antifungal spectrum, MIC (Table 6); type: cell-based
Experimental: as §2, §3

[18] = test system: Allescheria; assay: In vitro antifungal spectrum, MIC (Table 6); type: cell-based
Experimental: as §2, §3

[19] = test system: Rhizopus; assay: In vitro antifungal spectrum, MIC (Table 6); type: cell-based
Experimental: as §2, §3

[20] = test system: Candida albicans; assay: Single-dose therapy with free Nys of disseminated C. albicans infection in mice; type: in vivo, Hale-Stoner mice; settings: single iv dose, 1 mg to 4 mg/kg
Experimental: as §1

[21] = cited from earlier work
[22] = test system: human RBCs; assay: Lysis of human red blood cells (hemoglobin release at 550 nm); type: cell-based; settings: 37 °C, 45 min
Experimental: Lysis of human red blood cells (RBCs) was quantitated by measuring the release of hemoglobin in the supernatants at 550 nm, as described previously (Mehta et al., Biochem. Biophys, Acta., Vol. 770, pp. 230-234 (1984)). Various doses of L-Nys were incubated with fresh washed human RBCs at 37° C for 45 min. Free-Nys, dissolved in dimethyl formamide (DMFA), was added to the assay at a 3% final solvent concentration. Appropriate solvent controls, empty liposomes, and empty liposomes plus free-drug were also included in each experiment. Release of hemoglobin by hypotonic lysis of the same number of human RBCs by water was taken as 100% positive control, while cells treated with PBS were taken as negative controls.

[23] = test system: Candida albicans; assay: Single-dose therapy with free Nys or L-Nys of disseminated C. albicans infection in mice; type: in vivo, Hale-Stoner mice; settings: 4 mg/kg
Experimental: as §1
Mice were infected with C. albicans as described in Example 9. Groups of eight mice each were injected (iv) with various doses of free-Nys, L-Nys, empty liposomes or 5% DMSO two days after the injection of C. albicans. The survival of the animals in each group was noted and compared with that of the untreated control group.

[24] = test system: mice; assay: In vivo toxicology in Hale-Stoner mice
Experimental: Groups of eight Hale-Stoner mice (6-8 weeks old, body wt=20-25 g; Univ. of TX Science Park, Bastrop, TX) each were injected with various doses of free-Nys (in 5% DMSO diluted with saline), L-Nys, empty liposomes or 5% DMSO as control. […] After 45 days, the surviving animals were sacrificed and blood and tissue samples were obtained. Blood biochemistry examination included blood urea nitrogen, alkaline phosphatase, and lactic dehydrogenase (LDH). The organs (liver, spleen, lungs and kidneys) were obtained and preserved in 10% formalin. Tissue slices were processed for hematoxylin-eosin and Gomori methenamine silver stains.

[25] = test system: Candida albicans strain 336; assay: In vitro MIC, twofold serial dilution, C. albicans strain 336 (Table 5); type: cell-based
Experimental: as §2
The antifungal activity was maintained after Nys was entrapped in liposomes with or without sterols.

COC(=O)[C@H]1[C@@H]2C[C@@H](O[C@@H]3O[C@H](C)[C@@H](O)[C@H](N)[C@@H]3O)/C=C/C=C/C=C/C=C/C=C/C=C/C=C/[C@H](C)[C@@H](O)[C@@H](C)[C@H](C)OC(=O)C[C@H](O)C[C@H](O)CC[C@@H](O)[C@H](O)C[C@H](O)C[C@](O)(C[C@@H]1O)O2 [amphotericin B methyl ester ascorbate]
replication of HTLV-III/LAV in H9 cells [1]: inhibited

C[C@@H]1[C@H](O)[C@@H](C)/C=C/C=C/C=C/C=C/C=C/C=C/C=C/[C@H](O[C@@H]2O[C@H](C)[C@@H](O)[C@H](N)[C@@H]2O)C[C@@H]2O[C@](O)(C[C@@H](O)C[C@@H](O)[C@H](O)CC[C@@H](O)C[C@@H](O)CC(=O)O[C@H]1C)C[C@H](O)[C@H]2C(=O)O [amphotericin B]
replication of HTLV-III/LAV in H9 cells [1]: inhibited

C[C@@H]1[C@H](O)[C@@H](C)/C=C/C=C/CC/C=C/C=C/C=C/C=C/C(O[C@H]2O[C@H](C)[C@@H](O)[C@H](N)[C@@H]2O)CC2O[C@](O)(CC(O)C(O)CCC(O)CC(O)CC(O)CC(=O)O[C@H]1C)CC(O)C2C(=O)O (some centres unmarked) [free-Nys, nystatin]
survival time ([2]; single or multiple doses): 10 days | survival of infected mice ([2]; single or multiple doses (MTD, five consecutive days)): died as rapidly as the untreated controls | tolerability [3]: Tolerated well both orally and topically | soluble in DMFA ([4]; N,N-dimethylformamide): 15 mg/mL | soluble in DMSO ([4]; dimethyl sulfoxide): 40 mg/mL | soluble in methanol ([4]; methanol): 1 mg/mL | Minimal Inhibitory Concentration [5]: 2 µg/mL | Minimal Inhibitory Concentration [6]: 2 µg/mL | Minimal Inhibitory Concentration [7]: 1 µg/mL | Minimal Inhibitory Concentration ([8]; C. albicans #1): 2 µg/mL | Minimal Inhibitory Concentration ([8]; C. albicans #2): 2 µg/mL | Minimal Inhibitory Concentration ([8]; C. albicans #3): 4 µg/mL | Minimal Inhibitory Concentration ([8]; C. albicans #4): 4 µg/mL | Minimal Inhibitory Concentration ([8]; C. albicans #5): 8 µg/mL | Minimal Inhibitory Concentration ([8]; C. albicans #6): 4 µg/mL | Minimal Inhibitory Concentration ([8]; C. albicans #7): 8 µg/mL | Minimal Inhibitory Concentration ([8]; C. albicans #8): 8 µg/mL | Minimal Inhibitory Concentration ([8]; C. albicans #9): 4 µg/mL | Minimal Inhibitory Concentration ([8]; C. albicans #10): 4 µg/mL | Minimal Inhibitory Concentration [9]: 62.5 µg/mL | Minimal Inhibitory Concentration ([10]; Torulopsis globrata #1): 4 µg/mL | Minimal Inhibitory Concentration ([10]; Torulopsis globrata #2): 2 µg/mL | Minimal Inhibitory Concentration ([10]; Torulopsis globrata #3): 4 µg/mL | Minimal Inhibitory Concentration ([10]; Torulopsis globrata #4): 4 µg/mL | Minimal Inhibitory Concentration [11]: 4 µg/mL | Minimal Inhibitory Concentration [12]: 8 µg/mL | Minimal Inhibitory Concentration ([13]; C. paratropicalis #1): 2 µg/mL | Minimal Inhibitory Concentration ([13]; C. paratropicalis #2): 2 µg/mL | Minimal Inhibitory Concentration ([13]; C. paratropicalis #3): 4 µg/mL | Minimal Inhibitory Concentration ([13]; C. paratropicalis #4): 4 µg/mL | Minimal Inhibitory Concentration [14]: 2 µg/mL | Minimal Inhibitory Concentration ([15]; C. tropicalis #1): 16 µg/mL | Minimal Inhibitory Concentration ([15]; C. tropicalis #2): 8 µg/mL | Minimal Inhibitory Concentration ([15]; C. tropicalis #3): 4 µg/mL | Minimal Inhibitory Concentration ([15]; C. tropicalis #4): 4 µg/mL | Minimal Inhibitory Concentration ([16]; Cryptococcus neoformans #1): 4 µg/mL | Minimal Inhibitory Concentration ([16]; Cryptococcus neoformans #2): 4 µg/mL | Minimal Inhibitory Concentration ([17]; Aspergillus not fumigatus #1): 4 µg/mL | Minimal Inhibitory Concentration ([17]; Aspergillus not fumigatus #2): 16 µg/mL | Minimal Inhibitory Concentration [18]: 16 µg/mL | Minimal Inhibitory Concentration [19]: 4 µg/mL | survival of infected mice versus untreated control [20]: None of the doses tested improved the survival of infected mice | solubility in water ([21]; listed as Nys): substantially water-insoluble | solubility in water ([21]; listed as Nystatin): aqueous insolubility | lysis of human RBCs ([22]; 120 ug/ml): 100% | concentration range with linear increase in lysis of human RBCs [22]: 60 to 120 µg/mL | therapeutic effect in vivo [23]: no therapeutic effect in vivo | mortality ([24]; 4.4 mg/kg, mice, iv): all the animals died immediately | toxicity and efficacy when administered intravenously ([24]; intravenous, summary): toxic and noneffective when administered intravenously | maximal tolerated dose (MTD) ([24]; mice, iv, per body weight): 4 mg/kg | Minimal Inhibitory Concentration [25]: 1.0 µg/mL
